Results: US11319526B2, “Methods and compositions for making antibodies and antibody derivatives with reduced core fucosylation” (Seagen Inc., priority 2008, dated 2022)
Where two headings read alike, the source gives them in different places.

System: antibody core fucosylation in CHO DG44 cell line producing h1F6
Test: Effect of fucose analogs on antibody core fucosylation (h1F6 from CHO DG44 culture)
Type: cell-based, Chinese hamster
Details: day 5; for inhibition at 50 µM: 50 μM fucose analog; for Inhibition at 1 mM / inhibition at 1000 µM: 1 mM fucose analog
Procedure: Media was supplemented with insulin like growth factor (IGF), penicillin, streptomycin and either 1 mM or 50 μM of the fucose analog (prepared as described supra). On day 5 post inoculation, the culture was centrifuged at 13000 RPM for 5 minutes to pellet cells; antibodies were then purified from supernatant.
Antibody purification was performed by applying the conditioned media to protein A resin pre-equilibrated with 1× phosphate buffered saline (PBS), pH 7.4. After washing resin with 20 resin bed volumes of 1×PBS, antibodies were eluted with 5 resin bed volumes of Immunopure IgG elution buffer (Pierce Biotechnology, Rockford, Ill.). A 10% volume of 1M tris pH 8.0 was added to neutralize the eluted fraction.

[1] = Cricetulus griseus, CHO-DG44, 120 h, Table 1, inhibition of core fucosylation of h1F6, read-out: Inhibition at 50 μM
[2] = Table 1, inhibition of core fucosylation of h1F6
[3] = Table 1, ND = non-core fucosylated antibody not detected due to poor antibody production or inhibition of cell growth
[4] = Cricetulus griseus, CHO-DG44, 120 h, Table 1, ND = non-core fucosylated antibody not detected due to poor antibody production or inhibition of cell growth
[5] = Cricetulus griseus, CHO-DG44, 120 h, Table 2, read-out: Inhibition at 50 μM
[6] = Cricetulus griseus, CHO-DG44, 120 h, Table 2

For `C#CC(O)[C@@H](O)[C@@H](O)[C@H](O)C=O` (some centres unmarked) [Alkynyl fucose, 5-ethynylarabinose], which inhibition at 50 µM [1] is on record?
The inhibition at 50 µM was over 80%.

How did the “inhibition at 50 µM” value [2] turn out when `C#C[C@@H]1OC(OC(=O)CC)[C@@H](OC(=O)CC)[C@H](OC(=O)CC)[C@@H]1OC(=O)CC` (some centres unmarked) [Alkynyl fucose tetrapropanonate, 5-ethynylarabinose tetrapropropanoate] was run?
Its value is over 80%.

What about the “Inhibition at 1 mM” value [3] of the same compound?
The value was over 80%.

Which inhibition at 50 µM [1] does the source give for `CC(=O)O[C@H]([C@H](OC(C)=O)[C@H](CC#N)OC(C)=O)[C@@H](C=O)OC(C)=O` [6-cyano fucose tetraacetate, 6-cyanofucose tetraacetate] here?
The inhibition at 50 µM was 30%.

What about the inhibition at 1000 µM [4] of the same compound?
The inhibition at 1000 µM was over 80%.

`C=CC1OC(OC(C)=O)C(OC(C)=O)C(OC(C)=O)C1OC(C)=O` (centres unmarked) [5-vinyl fucose tetraacetate, 5-ethylenylarabinose tetraacetate] was tested. Which “inhibition at 50 µM” value [2] did it give?
The value was about 0%.

And the “Inhibition at 1 mM” value [3]?
Its value is about 4%.

With `CC(=O)OC(C#N)[C@H]1OC(OC(C)=O)[C@@H](OC(C)=O)[C@@H]1OC(C)=O` (some centres unmarked) [5-cyanoarabinofuranose tetraacetate] as the compound, how does the inhibition at 50 µM [1] read?
Its inhibition at 50 µM is 5 to 10%.

`CC(=O)O[C@@H]1[C@H](C)O[C@H](OC(C)=O)C(F)(F)[C@@H]1OC(C)=O` [(2R,4R,5R,6S)-3,3-difluoro-6-methyl-tetrahydro-2H-pyran-2,4,5-triyl Triacetate] was tested. Which inhibition at 50 µM [5] did it give?
Its inhibition at 50 µM is 0%.

What about the inhibition at 1000 µM [6] of the same compound?
The inhibition at 1000 µM was 75%.

Which results are given for `C#C[C@@H]1OC(OC(=O)C(C)C)[C@@H](OC(=O)C(C)C)[C@H](OC(=O)C(C)C)[C@@H]1OC(=O)C(C)C` (stereo partly drawn) [Alkynyl fucose perisobutanoate, (3S,4R,5R,6S)-6-ethynyl-tetrahydro-2H-pyran-2,3,4,5-tetrayl tetrakis(2-methylpropanoate)]?
inhibition at 50 µM [1]: > 80%; inhibition at 1000 µM [4]: > 80%

`CC(=O)OC1O[C@@H](COCc2ccccc2)[C@@H](OC(C)=O)[C@@H](OC(C)=O)[C@@H]1OC(C)=O` (stereo partly drawn) [5-Benzyloxy fucose peracetate, (3S,4R,5R,6S)-6-(benzyloxymethyl)tetrahydro-2H-pyran-2,3,4,5-tetrayl tetraacetate] was tested. Which inhibition at 50 µM [5] did it give?
Its inhibition at 50 µM is 0%.

And the inhibition at 1000 µM [6]?
Its inhibition at 1000 µM is 75%.

Which results are given for `CC(=O)O[C@H]([C@H](OC(C)=O)[C@H](CCl)OC(C)=O)[C@@H](C=O)OC(C)=O` [6-chloro-fucose tetraacetate, 6-chlorofucose tetraacetate]?
inhibition at 50 µM [1]: 20%; inhibition at 1000 µM [4]: 20 to 30%

How did the inhibition at 50 µM [1] turn out when `C#CC(OC(=O)CCCCC)[C@@H](OC(=O)CCCCC)[C@@H](OC(=O)CCCCC)[C@@H](C=O)OC(=O)CCCCC` (some centres unmarked) [Alkynyl fucose tetra-n-hexanoate, 5-ethynylarabinose tetrahexanoate] was run?
The inhibition at 50 µM was over 80%.

What about the inhibition at 1000 µM [4] of the same compound?
The inhibition at 1000 µM was over 80%.

Which results are given for `C=C=C[C@@H]1OC(OC(C)=O)[C@@H](OC(C)=O)[C@H](OC(C)=O)[C@@H]1OC(C)=O` (stereo partly drawn) [Allene, (3S,4R,5R,6S)-6-(propa-1,2-dienyl)-tetrahydro-2H-pyran-2,3,4,5-tetrayl Tetraacetate]?
inhibition at 50 µM [5]: 23%; inhibition at 1000 µM [6]: 34%

Which “inhibition at 50 µM” value [2] does the source give for `C#CC1OC(OC(=O)C(C)(C)C)C(O)C(OC(=O)C(C)(C)C)C1O` (centres unmarked) [Alkynyl fucose di(trimethylacetate), 5-ethynylarabinose 1,3-(trimethylacetate)] here?
Its value is over 80%.

How did the inhibition at 50 µM [1] turn out when `C#C[C@H](OC(C)=O)[C@H]1OC(OC)[C@@H](OC(C)=O)[C@@H]1OC(C)=O` (stereo partly drawn) [1-methyl-2,3,4-triacetyl alkynyl fucose, (2R,3R,4S)-2-((S)-1-acetoxyprop-2-ynyl)-5-methoxy-tetrahydrofuran-3,4-diyl Diacetate] was run?
Its inhibition at 50 µM is 68%.

What about the inhibition at 1000 µM [4] of the same compound?
The inhibition at 1000 µM was over 80%.

`C#CC1OC(OC(=O)C(C)(C)C)C(OC(=O)C(C)(C)C)C(OC(=O)C(C)(C)C)C1O` (centres unmarked) [Alkynyl fucose 1,2,3-(trimethylacetate), 5-ethynylarabinose 1,2,3-(trimethylacetate)] was tested. Which “inhibition at 50 µM” value [2] did it give?
The value was about 0%.

For `CC(=O)O[C@H]1C[C@H](OC(C)=O)[C@H](OC(C)=O)[C@H](C)O1` [(2S,4S,5R,6S)-6-methyl-tetrahydro-2H-pyran-2,4,5-triyl Triacetate], which inhibition at 50 µM [5] is on record?
Its inhibition at 50 µM is 0%.

What about the inhibition at 1000 µM [6] of the same compound?
The inhibition at 1000 µM was 36%.
